The text below walks through data of publication PMC9976286, “Combination of In Silico and In Vitro Screening to Identify Novel Glutamate Carboxypeptidase II Inhibitors” (Journal of Chemical Information and Modeling, 2023).

In one assay the test system is GCPII. To be noted: listed by ChEMBL ID or PDB ID; read-out: GCPII IC50 (Fig. S20, inhibitors with subnanomolar activities); cited from earlier work.
A further assay has as its target T1, Recombinant human GCPII (Homo sapiens, UniProt Q04609).
T1 construct: made in house
Description: In vitro GCPII inhibition assay, fluorescence-based, RP-HPLC readout (screening at 20 μM and IC50). To be noted: for inhibition at 20 µM: read-out: Inhibition [%] of GCPII activity. It counts as biochemical. How it is done:
The inhibitory potency of the selected compounds against GCPII was determined using a fluorescence-based assay developed in-house. Recombinant human GCPII purified as described previously[40],[41] (final concentration 0.02 nM) was preincubated with 20 μM test compound for the screening in 50 mM Tris-HCl, 150 mM NaCl, 0.001% C12E8 at 37 °C for 10 min. The reaction was initiated by the addition of 100 nM Glu-Glu dipeptide labeled with fluorescein (substrate)[42] in a total volume of 50 μL. Following 15 min incubation, the reaction was terminated by the addition of 5 μL of 0.1% TFA in 5% acetonitrile. […] The data were fitted using the GraphPad Prism software, and IC50 values were calculated from the inhibition curves of two independent experiments using a nonlinear analysis protocol.

The mark [1] stands for this setting: compound at 20 μM, 100 nM fluorescein-labeled Glu-Glu dipeptide substrate.

Like-named read-outs stand apart in the source and are kept apart here.

By IC50 is commonly meant the midpoint of a concentration-inhibition curve. The term inhibition denotes the share of the control response that was lost under treatment.

As to `O=C(O)CCC(CP(=O)(O)O)C(=O)O` (centres unmarked) [CHEMBL47009], the IC50 in the assay with GCPII is […].

T1 sequence (Q04609 whole entry): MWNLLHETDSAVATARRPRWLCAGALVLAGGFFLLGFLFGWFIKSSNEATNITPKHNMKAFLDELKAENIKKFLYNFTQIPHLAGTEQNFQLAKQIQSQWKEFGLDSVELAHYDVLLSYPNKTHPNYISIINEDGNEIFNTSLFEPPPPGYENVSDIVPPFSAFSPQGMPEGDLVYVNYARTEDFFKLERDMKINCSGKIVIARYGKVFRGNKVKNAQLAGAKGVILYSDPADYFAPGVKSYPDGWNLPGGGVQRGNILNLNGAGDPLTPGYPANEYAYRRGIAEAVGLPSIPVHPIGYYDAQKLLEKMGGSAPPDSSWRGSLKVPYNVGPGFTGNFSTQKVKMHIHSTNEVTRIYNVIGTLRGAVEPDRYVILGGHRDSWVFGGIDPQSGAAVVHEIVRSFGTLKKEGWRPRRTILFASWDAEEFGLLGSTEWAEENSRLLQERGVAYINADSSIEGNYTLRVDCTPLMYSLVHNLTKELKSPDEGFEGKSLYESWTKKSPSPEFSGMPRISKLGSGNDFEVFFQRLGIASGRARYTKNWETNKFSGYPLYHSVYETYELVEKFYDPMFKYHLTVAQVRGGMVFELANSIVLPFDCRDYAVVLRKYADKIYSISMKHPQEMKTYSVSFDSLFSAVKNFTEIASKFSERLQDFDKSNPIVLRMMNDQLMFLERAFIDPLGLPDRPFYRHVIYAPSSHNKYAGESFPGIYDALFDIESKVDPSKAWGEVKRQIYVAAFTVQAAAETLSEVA

For `O=C(O)CC[C@H](NP(=O)(O)O)C(=O)O` [CHEMBL241779], in the assay with GCPII, the IC50 is 0.86 nM.

As to `N[C@@H](CCC(=O)N[C@@H](COP(=O)(O)O[C@@H](CCC(=O)O)C(=O)O)C(=O)O)C(=O)O` [CHEMBL1289263], the IC50 in the assay with GCPII is 0.55 nM.

On to `O=C(O)CC[C@H](NP(=O)(O)OC[C@H](NC(=O)CC[C@H](NC(=O)CCCCCNC(=O)c1ccc(-c2c3ccc(=O)cc-3oc3cc(O)ccc23)c(C(=O)O)c1)C(=O)O)C(=O)O)C(=O)O` [CHEMBL1921899], for which the half-maximal inhibitory concentration (IC50) with GCPII is 0.41 nM.

In the case of `O=C(O)CC[C@H](NC(=O)N[C@@H](CCCC(=O)Nc1cccc(F)c1)C(=O)O)C(=O)O` [CHEMBL4277729], in the assay with GCPII, the IC50 was 0.28 nM.

`CN(Cc1ccc(F)cc1)C(=O)CCC[C@H](NC(=O)N[C@@H](CCC(=O)O)C(=O)O)C(=O)O` [CHEMBL4283406]: the IC50 with GCPII is 0.64 nM.

`O=C(O)CCNC(=O)C(F)(F)C(F)(F)C(=O)NCCC(=O)O` [Compound 1]: the inhibition at 20 µM on Recombinant human GCPII (setting [1]) is 0%.

Take `O=C(O)c1ccc(NC(=O)c2ccccc2C(=O)O)cc1O` [Compound 2]: at Recombinant human GCPII (setting [1]), the inhibition at 20 µM worked out at 0%.

Take `Cc1sc(NC(=O)CC(C)(C)CC(=O)Nc2sc(C)c(C)c2C(=O)O)c(C(=O)O)c1C` [Compound 3]: at Recombinant human GCPII (setting [1]), the inhibition at 20 µM is 11%.

As for `COc1ccc(N(CCC(=O)O)CCC(=O)O)cc1OC` [Compound 4], at Recombinant human GCPII (setting [1]), the inhibition at 20 µM amounted to 2%.

As to `O=C(O)CSc1nnnn1-c1ccc(C(=O)O)cc1` [Compound 5], the inhibition at 20 µM on Recombinant human GCPII (setting [1]) amounted to 3%.

Turning to `Cc1sc(NC(=O)c2cc(C(=O)O)ccc2C(=O)O)c(C#N)c1C` [Compound 6], the inhibition at 20 µM at Recombinant human GCPII (setting [1]) was determined as 4%.

`O=C(O)CCN(CCC(=O)O)c1ccccc1O` [Compound 7]: on Recombinant human GCPII (setting [1]), the inhibition at 20 µM stood at 12%.

As for `COc1ccc([C@H](C)NC(=O)c2cc(C(=O)O)ccc2C(=O)O)cc1` [Compound 8], the inhibition at 20 µM on Recombinant human GCPII (setting [1]) was 1%.

In the case of `O=C(O)CCC(=O)Nc1cc(C(=O)O)ccc1Br` [Compound 9], the inhibition at 20 µM on Recombinant human GCPII (setting [1]) is 0%.

Take `O=C(O)CCCC(=O)Nc1ccc(C(=O)O)cc1` [Compound 10]: the inhibition at 20 µM at Recombinant human GCPII (setting [1]) amounted to 0%.

Regarding `O=C(O)c1cccc(NC(=O)[C@H]2CC=CC[C@H]2C(=O)O)c1` [Compound 11], the inhibition at 20 µM at Recombinant human GCPII (setting [1]) is 0%.

For the molecule `COc1ccc(OC)c(NC(=O)c2ccc(C(=O)O)cc2C(=O)O)c1` [Compound 12], the inhibition at 20 µM at Recombinant human GCPII (setting [1]) worked out at 0%.

Regarding `COc1ccc(Cl)cc1NC(=O)c1ccc(C(=O)O)cc1C(=O)O` [Compound 13], on Recombinant human GCPII (setting [1]), the inhibition at 20 µM is 0%.

Take `O=C(O)c1ccccc1CN[C@@H](Cc1c[nH]c2ccccc12)C(=O)O` [Compound 14]: the inhibition at 20 µM at Recombinant human GCPII (setting [1]) worked out at 0%.

On to `N#Cc1c(NC(=O)c2ccc(C(=O)O)cc2C(=O)O)sc2c1CCCC2` [Compound 15], for which the inhibition at 20 µM at Recombinant human GCPII (setting [1]) came out at 13%.

Turning to `CCOc1ccc(NC(=O)c2cc(C(=O)O)ccc2C(=O)O)cc1` [Compound 16], the inhibition at 20 µM on Recombinant human GCPII (setting [1]) is 0%.

As for `O=C(O)CN[S@TB17](=O)(=O)c1ccc(C(=O)O)cc1` [Compound 19], the inhibition at 20 µM at Recombinant human GCPII (setting [1]) was 0%.

For the molecule `O=C(O)Cn1c(COCc2nc3ccccc3n2CC(=O)O)nc2ccccc21` [Compound 20], the inhibition at 20 µM at Recombinant human GCPII (setting [1]) was 8%.

With `O=C(O)CSc1nc2ccccc2n1CC(=O)O` [Compound 21], the inhibition at 20 µM on Recombinant human GCPII (setting [1]) is 1%.

For `CC(C)(CC(=O)Nc1scc(-c2cccs2)c1C(=O)O)CC(=O)Nc1scc(-c2cccs2)c1C(=O)O` [Compound 22], on Recombinant human GCPII (setting [1]), the “Inhibition [%] of GCPII activity” value is listed as 38% and the inhibition at 20 µM is greater than 25%.

Turning to `O=C(O)CSc1ncccc1C(=O)O` [Compound 23], the inhibition at 20 µM on Recombinant human GCPII (setting [1]) is 11%.

On to `O=C(O)c1cc(C(=O)O)c(C(=O)O)cc1C(=O)O` [Compound 24], for which, at Recombinant human GCPII (setting [1]), the “Inhibition [%] of GCPII activity” value is listed as 33% and the inhibition at 20 µM is greater than 25%.

Turning to `O=C(O)CN1CCC(C(=O)O)CC1` [Compound 25], the inhibition at 20 µM at Recombinant human GCPII (setting [1]) was determined as 0%.

As for `CC(C)(CC(=O)Nc1scc(-c2ccccc2)c1C(=O)O)CC(=O)Nc1scc(-c2ccccc2)c1C(=O)O` [Compound 26], the inhibition at 20 µM at Recombinant human GCPII (setting [1]) turned out to be 18%.

In the case of `O=C(O)CCN(CCC(=O)O)c1ccc(/C=C/c2ccnc3ccccc23)cc1` [Compound 27], the inhibition at 20 µM on Recombinant human GCPII (setting [1]) is 18%.

As for `Nc1cc(N)c(C(=O)O)cc1C(=O)O` [Compound 28], on Recombinant human GCPII (setting [1]), the “Inhibition [%] of GCPII activity” value is given as 29% and the inhibition at 20 µM was greater than 25%.

With `Cc1cc(-c2ccc(NC(=O)CCC(=O)O)c(C)c2)ccc1NC(=O)CCC(=O)O` [Compound 29], the inhibition at 20 µM on Recombinant human GCPII (setting [1]) was found to be 0%.

As for `O=C(NCCCCCCNC(=O)[C@H]1CCCC[C@H]1C(=O)O)[C@H]1CCCC[C@H]1C(=O)O` [Compound 30], on Recombinant human GCPII (setting [1]), the inhibition at 20 µM worked out at 0%.

As for `O=C(O)c1ccc(CNCc2ccccc2C(=O)O)cc1` [Compound 31], at Recombinant human GCPII (setting [1]), the inhibition at 20 µM turned out to be 8%.

With `O=C(O)CN[S@TB17](=O)(=O)c1cccc(C(=O)O)c1` [Compound 32], the inhibition at 20 µM on Recombinant human GCPII (setting [1]) is 1%.

In the case of `O=C(O)CNc1ccc(C(=O)O)cc1` [Compound 33], the inhibition at 20 µM on Recombinant human GCPII (setting [1]) was 0%.

Take `O=C(O)c1ccccc1NC(=O)[C@@H](O)[C@H](O)C(=O)O` [Compound 34]: the inhibition at 20 µM on Recombinant human GCPII (setting [1]) worked out at 2%.

For the molecule `O=C(O)CCCC(=O)Nc1cccc(C(=O)O)c1` [Compound 35], on Recombinant human GCPII (setting [1]), the inhibition at 20 µM turned out to be 1%.

For the molecule `O=C(O)c1ccc(C(=O)NCCc2ccccc2)c(C(=O)O)c1` [Compound 36], on Recombinant human GCPII (setting [1]), the inhibition at 20 µM is 3%.

As to `O=C(O)c1ccc(C(=O)NCc2ccccc2)c(C(=O)O)c1` [Compound 37], the inhibition at 20 µM on Recombinant human GCPII (setting [1]) is 1%.

Consider `CC(=O)c1ccc(NC(=O)c2ccc(C(=O)O)cc2C(=O)O)cc1` [Compound 38], for which, at Recombinant human GCPII (setting [1]), the inhibition at 20 µM is 0%.

With `CCCCc1ccc(NC(=O)c2ccc(C(=O)O)cc2C(=O)O)cc1` [Compound 39], on Recombinant human GCPII (setting [1]), the inhibition at 20 µM worked out at 10%.

For the molecule `O=C(O)c1ccc(C(=O)Nc2cc(Cl)ccc2Cl)c(C(=O)O)c1` [Compound 40], the inhibition at 20 µM on Recombinant human GCPII (setting [1]) came out at 4%.

Regarding `O=C(O)c1ccc(C(=O)Nc2ccc(Oc3ccccc3)cc2)c(C(=O)O)c1` [Compound 41], the inhibition at 20 µM on Recombinant human GCPII (setting [1]) was determined as 0%.

Take `COc1ccc([S@TB4](=O)(=O)Oc2ccc(C(=O)O)cc2)cc1` [Compound 42]: at Recombinant human GCPII (setting [1]), the inhibition at 20 µM was 1%.

`O=[N+]([O-])c1ccc([S@TB4](=O)(=O)Oc2cccc(O[S@TB17](=O)(=O)c3ccc([N+](=O)[O-])cc3)c2)cc1` [Compound 43]: at Recombinant human GCPII, the inhibition at 20 µM was found to be 1%.

Regarding `COc1cc(C(=O)O)ccc1O[S@TB17](=O)(=O)c1ccc(F)cc1` [Compound 44], the inhibition at 20 µM on Recombinant human GCPII (setting [1]) came out at 0%.

With `O=C(O)c1ccc(CN2CC(C(=O)O)CC2=O)cc1` (centres unmarked) [Compound 45], the “Inhibition [%] of GCPII activity” value on Recombinant human GCPII (setting [1]) is given as 1%.

For the molecule `Cc1c(C)c(CC(C(=O)O)C(=O)O)c(C)c(C)c1CC(C(=O)O)C(=O)O` [Compound 47], on Recombinant human GCPII (setting [1]), the inhibition at 20 µM came out at 24%.

`O=C(/C=C/c1ccccc1)Oc1cc([S@TB3](=O)(=O)O)cc2cc([S@TB3](=O)(=O)O)ccc12` [Compound 48]: the inhibition at 20 µM on Recombinant human GCPII (setting [1]) worked out at 16%.

Turning to `CCCCc1nc(Cl)c(C(=O)O)n1Cc1ccc(-c2ccccc2-c2nnn[nH]2)s1` [Compound 49], the inhibition at 20 µM at Recombinant human GCPII (setting [1]) was 15%.

For the molecule `O=[N+]([O-])c1ccc([S@TB4](=O)(=O)Oc2ccc(O[S@TB17](=O)(=O)c3ccc([N+](=O)[O-])cc3)c(Br)c2)cc1` [Compound 50], the inhibition at 20 µM at Recombinant human GCPII stood at 1%.
